Test results: the supplement of paper PMC10307832

Assays:
Assay in all cases: relative viability (nuclei count vs DMSO), 5 days (fraction); higher = more cells survive
SGI-1776 + Trametinib = compound: CN1CCC(CNc2ccc3ncc(-c4cccc(OC(F)(F)F)c4)n3n2)CC1 [SGI-1776] + CC(=O)Nc1cccc(-n2c(=O)n(C3CC3)c(=O)c3c(Nc4ccc(I)cc4F)n(C)c(=O)c(C)c32)c1 [Trametinib] (partner 0.02 µM)
In short: (§1)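 The day after seeding in 1536-well plates, lung cancer cell lines were treated by pin tool with a single drug, or with a fixed anchor-drug dose together with five library-drug doses (not always all listed) in √10 steps. After 5 days, a combined fix-and-stain solution (final 0.05% Triton X-100, 1% formaldehyde, 1 ug/ml Hoechst) was added. Nuclei counted on 4× images gave relative viability as treated counts over vehicle counts, reported as the median of duplicate plates.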

SGI-1776 + Alpelisib = compound: CN1CCC(CNc2ccc3ncc(-c4cccc(OC(F)(F)F)c4)n3n2)CC1 [SGI-1776] + Cc1nc(NC(=O)N2CCC[C@H]2C(N)=O)sc1-c1ccnc(C(C)(C)C(F)(F)F)c1 [Alpelisib] (partner 2 µM)
In short: as §1

[1] = compound: C1COCCN1C2=NC(=NC3=C2OC4=C3C=CC=N4)C5=CC(=CC=C5)NC(=O)C6=CN=C(C=C6)N + CC(=O)c1c(C)c2cnc(Nc3ccc(N4CCNCC4)cn3)nc2n(C2CCCC2)c1=O [Palbociclib] (partner 0.5 µM)
In short: as §1

Entinostat + Luminespib = compound: Nc1ccccc1NC(=O)c1ccc(CNC(=O)OCc2cccnc2)cc1 [Entinostat] + CCNC(=O)c1noc(-c2cc(C(C)C)c(O)cc2O)c1-c1ccc(CN2CCOCC2)cc1 [Luminespib] (partner 0.01 µM)
In short: as §1

Row | Cell Line | relative viability (SGI-1776 + Trametinib; first compound 0.08 µM) | relative viability (SGI-1776 + Trametinib; first compound 0.8 µM) | relative viability (SGI-1776 + Trametinib; first compound 2.53 µM) | relative viability (SGI-1776 + Trametinib; first compound 8 µM) | relative viability (SGI-1776 + Alpelisib; first compound 0.08 µM) | relative viability (SGI-1776 + Alpelisib; first compound 0.8 µM) | relative viability (SGI-1776 + Alpelisib; first compound 2.53 µM) | relative viability (SGI-1776 + Alpelisib; first compound 8 µM) | relative viability ([1]; first compound 0.02 µM) | relative viability ([1]; first compound 0.06325 µM) | relative viability ([1]; first compound 0.2 µM) | relative viability ([1]; first compound 0.6325 µM) | relative viability ([1]; first compound 2 µM) | relative viability (Entinostat + Luminespib; first compound 0.02 µM) | relative viability (Entinostat + Luminespib; first compound 0.06325 µM) | relative viability (Entinostat + Luminespib; first compound 0.2 µM) | relative viability (Entinostat + Luminespib; first compound 0.6325 µM) | relative viability (Entinostat + Luminespib; first compound 2 µM)
1 | SW 1573 | 0.525 | 0.444 | 0.463 | 0.305 | 0.666 | 0.763 | 0.906 | 0.581 | 0.397 | 0.381 | 0.37 | 0.429 | 0.261 | 0.531 | 0.35 | 0.162 | 0.262 | 0.217
2 | LU99A | 0.62 | 0.594 | 0.542 | 0.515 | 0.614 | 0.525 | 0.552 | 0.406 | 0.412 | 0.448 | 0.361 | 0.343 | 0.29 | 0.286 | 0.255 | 0.322 | 0.211 | 0.281
3 | NCI-H1299 |  |  |  |  | 1.11 | 1.01 | 1.07 | 1.08 |  |  |  |  |  |  |  |  |  | 
4 | NCI-H1355 | 0.444 | 0.408 | 0.408 | 0.41 | 0.835 | 0.97 | 0.847 | 0.66 | 0.371 | 0.385 | 0.423 | 0.609 | 0.354 | 0.724 | 0.611 | 0.616 | 0.504 | 0.418
5 | HARA | 0.652 | 0.74 | 0.604 | 0.732 | 1.01 | 0.935 | 0.803 | 0.678 | 0.207 | 0.242 | 0.246 |  | 0.263 | 0.534 | 0.732 | 0.752 | 0.584 | 0.201
6 | LXF-289 | 0.68 | 0.64 | 0.668 | 0.606 | 1 | 1.06 | 1.03 | 1 | 0.603 | 0.604 | 0.623 | 0.612 | 0.384 | 0.754 | 0.675 | 0.739 | 0.494 | 0.354
7 | 201T | 0.702 | 0.77 | 0.711 | 0.702 | 1.02 | 1.03 | 1.08 | 0.999 | 0.357 | 0.358 | 0.372 | 0.346 | 0.324 | 1.03 | 1.04 | 0.995 | 0.925 | 0.747
8 | HCC-827 | 0.578 | 0.534 | 0.578 | 0.464 | 1.08 | 0.993 | 1.06 | 0.849 | 0.392 | 0.537 | 0.491 | 0.538 | 0.34 | 0.505 | 0.309 | 0.401 | 0.202 | 0.197
9 | NCI-H1703 |  |  |  |  | 0.367 | 0.312 | 0.299 | 0.165 |  |  |  |  |  |  |  |  |  | 
10 | NCI-H1975 | 0.389 | 0.33 | 0.325 | 0.313 | 0.674 | 0.598 | 0.501 | 0.322 | 0.589 | 0.777 | 0.48 | 0.455 | 0.38 | 0.238 | 0.209 | 0.217 | 0.199 | 0.13
11 | NCI-H2023 | 0.539 | 0.508 | 0.491 | 0.312 | 0.595 | 0.546 | 0.546 | 0.414 | 0.378 | 0.384 | 0.316 | 0.256 | 0.172 | 0.648 | 0.528 | 0.313 | 0.111 | 0.0763
12 | ChaGo-K-1 | 0.878 | 0.865 | 0.874 | 0.909 |  |  |  |  | 0.994 | 0.983 | 0.968 | 0.835 | 0.502 | 0.765 | 0.523 | 0.487 | 0.596 | 0.503
13 | COR-L 105 | 0.504 | 0.388 | 0.452 | 0.41 | 1.13 | 1.05 | 1.03 | 0.759 | 0.413 | 0.403 | 0.371 | 0.363 | 0.359 | 0.803 | 0.749 | 0.72 | 0.561 | 0.345
14 | NCI-H2170 | 0.925 | 0.924 | 0.855 | 0.912 | 0.858 | 0.835 | 0.697 | 0.635 | 0.405 | 0.395 | 0.407 | 0.422 | 0.275 | 0.778 | 0.654 | 0.643 | 0.47 | 0.329
15 | A549 |  |  |  |  | 0.787 | 0.701 | 0.852 | 0.394 |  |  |  |  |  |  |  |  |  | 
16 | NCI-H1993 | 0.576 | 0.496 | 0.765 | 0.538 | 0.631 | 0.684 | 0.687 | 0.594 | 0.683 | 0.72 | 0.543 | 0.632 | 0.467 | 0.968 | 1.08 | 0.925 | 0.771 | 0.275
17 | Calu-6 |  |  |  |  | 1.01 | 0.955 | 1.23 | 0.628 |  |  |  |  |  |  |  |  |  | 
18 | NCI-H1648 | 0.397 | 0.441 | 0.415 | 0.398 |  |  |  |  | 0.252 | 0.252 | 0.255 | 0.212 | 0.222 |  |  |  |  | 
19 | NCI-H1623 |  |  |  |  |  |  |  |  |  |  |  |  |  | 0.632 | 0.554 | 0.443 | 0.472 | 0.279
20 | NCI-H322M | 0.524 | 0.506 | 0.485 | 0.487 | 0.883 | 0.934 | 0.928 | 0.756 | 0.485 | 0.536 | 0.54 | 0.48 | 0.384 | 0.909 | 1.13 | 1.06 | 1.1 | 1.03
21 | NCI-H2405 | 0.679 | 0.595 | 0.568 | 0.398 | 0.865 | 0.766 | 0.739 | 0.383 | 0.498 | 0.566 | 0.499 | 0.48 | 0.359 | 0.789 | 0.767 | 0.944 | 0.808 | 0.597
22 | HCC-44 | 1.04 | 1.05 | 0.988 | 1.09 | 0.88 | 0.876 | 0.733 | 0.571 | 0.952 | 0.987 | 0.96 | 1.01 | 1.01 | 1.04 | 0.889 | 0.741 | 0.505 | 0.324
